According to patent US8497240B2 (priority 2006, dated 2013):
“And” between values parts separate entries of the source, which are not always exact repeats. Equal entries are not always repeated. Where two headings read alike, the source gives them in different places. Ends that are not written are not given here.

How the values were obtained:
[1] = assay type: in vivo, NIH/Swiss mice
Procedure: (§1) In FIG. 3A, bars represent mean±sd, n=6-10. […] Gavage (1.5 g/kg) was given at t=0, Sample was taken at t=30 min. […] In FIG. 3B, points represent mean±sem, n=8-15.
Peptide was injected IP at t=−5 minutes into 4-hour fasted NIH/Swiss female mice. […] In FIG. 17 points represent mean+/−sem. […] Samples were taken at t=60, t=120 and t=180.

[2] = assay type: in vivo, NIH/Swiss mice; settings: for Basal Gluc. Low. 80 nmol/Kg / Basal Glucose Lowering at Peptide Conc. of 80 nmol/kg: AUC240; for basal glucose lowering (% maximal decrease): mouse, in vivo
Procedure: as §1
Points represent mean±sem.

[3] = Intravenous glucose tolerance test (IVGTT), i.v. infusion; assay type: in vivo, rat; settings: for IVGTT > = < Compared to 0601GIP3794 / Standard IVGTT assay IV infusion (insulin AUC 0-30 min): rat; for IVGTT > = < Compared to 0601GIP3794: in vivo; for Standard IVGTT assay IV infusion (insulin AUC 0-30 min): IV infusion 100 pmol/min/kg
Procedure: In the typical IVGTT assays the test sample was administered by IV infusion. The IV infusion of sample was initiated at t=−30 min and continued through t=90. IV glucose was given at t=0. To determine a duration of action using the IVGTT assay, the sample was injected SC as a single injection at one time point indicated (e.g., t=−240, −120, −60 or −30) prior to administration of glucose. IV glucose was given at t=0.
As described, fed, isoflurane anesthetized HSD male rats were intubated and cannulated via femoral artery and vein and allowed to stabilize for 1 hour. […] At t=0, an i.v. bolus of 5.7 mmol/kg D-glucose was administered over 2 minutes. Samples for glucose measurement and insulin concentrations were taken at various time points before and after (0 to 90 minutes) glucose infusion.

[4] = conscious rats, 100 μg; cited from earlier work
[5] = molecular target: T1, human GIP receptor (Homo sapiens, UniProt P48546); test: biochemical; assay type: binding
T1 construct: expressed in transfected cells; host or cells: HEK293 (HEK-GIPR), membranes
T1 sequence (P48546 22-466): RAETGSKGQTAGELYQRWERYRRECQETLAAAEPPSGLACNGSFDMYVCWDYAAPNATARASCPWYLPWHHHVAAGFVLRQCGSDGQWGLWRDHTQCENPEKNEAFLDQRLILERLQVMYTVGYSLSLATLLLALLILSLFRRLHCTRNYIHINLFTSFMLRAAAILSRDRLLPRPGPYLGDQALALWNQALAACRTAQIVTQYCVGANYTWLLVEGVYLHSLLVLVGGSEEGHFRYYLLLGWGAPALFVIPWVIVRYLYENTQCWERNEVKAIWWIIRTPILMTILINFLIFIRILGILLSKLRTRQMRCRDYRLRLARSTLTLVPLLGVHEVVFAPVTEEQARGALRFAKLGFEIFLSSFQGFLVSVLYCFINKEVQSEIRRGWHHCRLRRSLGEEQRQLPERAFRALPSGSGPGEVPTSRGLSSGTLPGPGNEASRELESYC

[6] = IVGTT duration of action assay (single SC injection before glucose); assay type: in vivo, rat; settings: for Duration In The Rat IVGTT Assay: compared with 0601GIP3794 (794), dosed at −120 min
Procedure: To determine a duration of action using the IVGTT assay, the sample was injected SC as a single injection at one time point indicated (e.g., t=−240, −120, −60 or −30) prior to administration of glucose. IV glucose was given at t=0.

[7] = read-out: (% Inh 10 nm, GIP-LF Assay)
[8] = read-out: GIP RBA (% Inh 10 nM)

Compound	OGTT/GL (%) ([1]; 30 nmol/kg)	Basal Gluc. Low. 80 nmol/Kg [2]	Basal Glucose Lowering at Peptide Conc. of 80 nmol/kg [2]	IVGTT > = < Compared to 0601GIP3794 [3]	inhibition at 0.01 µM [5, 7] [%]	Duration In The Rat IVGTT Assay [6]	inhibition at 0.01 µM [5, 8] [%]	also measured
[dAla2, Leu14, Ala18, glu21] GIP-(1-30)-Exendin-4 (31-39) [Compound 0601GIP4285]	−17% and −17 30 nmol/kg, %	−2%,	−2%, AUC240	=	–	–	–	OGTT/GL (%) ([1]; 350 nmol/kg): −10 350 nmol/kg %
adrenomedullin: amylin family peptide hormone (YRQSMNNFQGLRSFGCRFGTCTVQKLAHQIYQFTDKDKDNVAPRSKISPQGY; ends and bridges not checked; cysteine pairing not given here; UniProt P35318 95-146, looked up)	–	–	–	–	–	–	–	inhibition of gastric emptying at doses of 100 μg [4]: either weakly active or inactive
octylglycine-GIP(1-30)-Exendin-4-(31-39) [Compound 0601GIP4178]	–	–	−13%, AUC240	<	–	–	–	OGTT/GL (%) ([1]; 350 nmol/kg): −20%; OGTT response ([1]; mouse, in vivo): −20%; basal glucose lowering (% maximal decrease) [2]: −20%; insulin levels prior to the glucose challenge ([3]; 100 pmol/kg/min infusion, rats): significant rise in insulin levels; insulinotropic response to an intravenous glucose challenge (IVGTT assay) ([3]; 100 pmol/kg/min infusion, rats): diminished insulinotropic response
insulin: peptide hormone	–	–	–	–	–	–	–	inhibition of gastric emptying at doses of 100 μg [4]: either weakly active or inactive
CC[C@H](C)[C@H](NC(=O)[C@H](CO)NC(=O)[C@H](Cc1ccc(O)cc1)NC(=O)[C@H](CC(=O)O)NC(=O)[C@H](CO)NC(=O)[C@@H](NC(=O)[C@H](Cc1ccccc1)NC(=O)[C@@H](NC(=O)CNC(=O)[C@H](CCC(=O)O)NC(=O)[C@@H](C)NC(=O)[C@@H](N)Cc1ccc(O)cc1)[C@@H](C)O)[C@@H](C)CC)C(=O)N[C@@H](C)C(=O)N[C@@H](CCSC)C(=O)N[C@@H](CC(=O)O)C(=O)N[C@@H](CCCCN)C(=O)N[C@H](C(=O)N[C@@H](Cc1c[nH]cn1)C(=O)N[C@@H](CCC(N)=O)C(=O)N[C@@H](CCC(N)=O)C(=O)N[C@@H](CC(=O)O)C(=O)N[C@@H](Cc1ccccc1)C(=O)N[C@H](C(=O)N[C@@H](CC(N)=O)C(=O)N[C@@H](Cc1c[nH]c2ccccc12)C(=O)N[C@@H](CC(C)C)C(=O)N[C@@H](CC(C)C)C(=O)N[C@@H](C)C(=O)N[C@@H](CCC(N)=O)C(=O)N[C@@H](CCCCN)C(=O)N1CCC[C@H]1C(=O)N[C@@H](CCCCN)C(=O)N[C@@H](CCCCN)C(=O)N[C@@H](C)C(=O)N[C@@H](CCCNC(=N)N)C(=O)N[C@@H](Cc1ccc(O)cc1)C(=O)N[C@@H](CO)C(N)=O)C(C)C)[C@@H](C)CC [Compound 0601GIP4856]	−29, %	−3%,	–	–	83.7	<794@ −120 min	–	–
CC[C@H](C)[C@H](NC(=O)[C@H](C)NC(=O)[C@H](CCCCN)NC(=O)[C@@H]1CCCN1C(=O)[C@H](CCCCN)NC(=O)[C@H](CCC(N)=O)NC(=O)[C@H](C)NC(=O)[C@H](CC(C)C)NC(=O)[C@H](CC(C)C)NC(=O)[C@H](Cc1c[nH]c2ccccc12)NC(=O)[C@H](CC(N)=O)NC(=O)[C@@H](NC(=O)[C@H](Cc1ccccc1)NC(=O)[C@H](CC(=O)O)NC(=O)[C@H](CCC(N)=O)NC(=O)[C@H](CCC(N)=O)NC(=O)[C@H](Cc1c[nH]cn1)NC(=O)[C@@H](NC(=O)[C@H](CCCCN)NC(=O)[C@H](CC(=O)O)NC(=O)[C@H](CCSC)NC(=O)[C@H](C)NC(=O)[C@@H](NC(=O)[C@H](CO)NC(=O)[C@H](Cc1ccc(O)cc1)NC(=O)[C@H](CC(=O)O)NC(=O)[C@H](CO)NC(=O)[C@@H](NC(=O)[C@H](Cc1ccccc1)NC(=O)[C@@H](NC(=O)CNC(=O)[C@H](CCC(=O)O)NC(=O)[C@@H](C)NC(=O)[C@@H](N)Cc1ccc(O)cc1)[C@@H](C)O)[C@@H](C)CC)[C@@H](C)CC)[C@@H](C)CC)C(C)C)C(=O)N[C@@H](CCCNC(=N)N)C(=O)N[C@@H](Cc1ccc(O)cc1)C(=O)N[C@@H](CO)C(N)=O [Compound 0601GIP4816]	−19%,	−9%,	–	–	87.3	<794@ −120 min	87.3	–
CC[C@H](C)[C@H](NC(=O)[C@H](CO)NC(=O)[C@H](Cc1ccc(O)cc1)NC(=O)[C@H](CC(=O)O)NC(=O)[C@H](CO)NC(=O)[C@@H](NC(=O)[C@H](Cc1ccccc1)NC(=O)[C@@H](NC(=O)CNC(=O)[C@H](CCC(=O)O)NC(=O)[C@@H](C)NC(=O)[C@@H](N)Cc1ccc(O)cc1)[C@@H](C)O)[C@@H](C)CC)C(=O)N[C@@H](C)C(=O)N[C@@H](CCSC)C(=O)N[C@@H](CC(=O)O)C(=O)N[C@@H](CCCCN)C(=O)N[C@H](C(=O)N[C@@H](Cc1c[nH]cn1)C(=O)N[C@@H](CCC(N)=O)C(=O)N[C@@H](CCC(N)=O)C(=O)N[C@@H](CC(=O)O)C(=O)N[C@@H](Cc1ccccc1)C(=O)N[C@H](C(=O)N[C@@H](CC(N)=O)C(=O)N[C@@H](Cc1c[nH]c2ccccc12)C(=O)N[C@@H](CC(C)C)C(=O)N[C@@H](CC(C)C)C(=O)N[C@@H](C)C(=O)N[C@@H](CCC(N)=O)C(=O)N[C@@H](CCCCN)C(=O)N1CCC[C@H]1C(=O)N[C@@H](CO)C(=O)N1CCC[C@H]1C(=O)N[C@@H](CCCCN)C(=O)N[C@@H](CCCCN)C(=O)N[C@H](C(=O)N[C@@H](CCCNC(=N)N)C(=O)N[C@@H](Cc1ccc(O)cc1)C(=O)N[C@@H](CO)C(N)=O)[C@@H](C)CC)C(C)C)[C@@H](C)CC [Compound 0601GIP4823]	–	−23%,	–	–	94.1	<794@ −120 min	94.1	–
Human GIP	–	–	–	–	–	–	–	Standard IVGTT assay IV infusion (insulin AUC 0-30 min) [3]: 226; Duration of action in assay (insulin AUC 0-30 min) ([6]; SC inj T = −30 min): 57
dAla2-GIP(1-42) acid form [Compound 0601GIP4042]	–	–	–	–	–	–	–	basal glucose lowering (% maximal decrease) [2]: −11%; insulinotropic response to an intravenous glucose challenge (IVGTT assay) ([3]; 100 pmol/kg/min infusion, rats): significant enhancement of the insulinotropic response
[dAla2]GIP-(1-30)-[Octylglycine 34] Exendin-4 (31-39) [Compound 0601GIP4252]	–	–	−7%, AUC240	=	–	–	–	Standard IVGTT assay IV infusion (insulin AUC 0-30 min) [3]: 218
[dAla2, Leu14, beta-Ala31, beta-Ala32] GIP-(1-32)-Exendin-4 (31-39) [Compound 0601GIP4179]	−24 30 nmol/kg, %	–	−17%, AUC240	=	–	–	–	OGTT/GL (%) ([1]; 350 nmol/kg): −23 350 nmol/kg %
CC[C@H](C)[C@H](NC(=O)[C@H](CO)NC(=O)[C@H](Cc1ccc(O)cc1)NC(=O)[C@H](CC(=O)O)NC(=O)[C@H](CO)NC(=O)[C@@H](NC(=O)[C@H](Cc1ccccc1)NC(=O)[C@@H](NC(=O)CNC(=O)[C@H](CCC(=O)O)NC(=O)[C@@H](C)NC(=O)[C@@H](N)Cc1ccc(O)cc1)[C@@H](C)O)[C@@H](C)CC)C(=O)N[C@@H](C)C(=O)N[C@@H](CCSC)C(=O)N[C@@H](CC(=O)O)C(=O)N[C@@H](CCCCN)C(=O)N[C@H](C(=O)N[C@@H](Cc1c[nH]cn1)C(=O)N[C@@H](CCC(N)=O)C(=O)N[C@@H](CCC(N)=O)C(=O)N[C@@H](CC(=O)O)C(=O)N[C@@H](Cc1ccccc1)C(=O)N[C@H](C(=O)N[C@@H](CC(N)=O)C(=O)N[C@@H](Cc1c[nH]c2ccccc12)C(=O)N[C@@H](CC(C)C)C(=O)N[C@@H](CC(C)C)C(=O)N[C@@H](C)C(=O)N[C@@H](CCC(N)=O)C(=O)N[C@@H](CCCCN)C(=O)N1CCC[C@H]1C(=O)N[C@@H](CCCCN)C(=O)N[C@@H](CO)C(=O)N[C@@H](C)C(=O)N[C@@H](CCCNC(=N)N)C(=O)N1CCC[C@H]1C(=O)N[C@@H](CO)C(N)=O)C(C)C)[C@@H](C)CC [Compound 0601GIP4821]	−28, %	−5%,	–	–	93.5	<794@ −120 min	93.5	–
CC[C@H](C)[C@H](NC(=O)[C@H](CO)NC(=O)[C@H](Cc1ccc(O)cc1)NC(=O)[C@H](CC(=O)O)NC(=O)[C@H](CO)NC(=O)[C@@H](NC(=O)[C@H](Cc1ccccc1)NC(=O)[C@@H](NC(=O)CNC(=O)[C@H](CCC(=O)O)NC(=O)[C@@H](C)NC(=O)[C@@H](N)Cc1ccc(O)cc1)[C@@H](C)O)[C@@H](C)CC)C(=O)N[C@@H](C)C(=O)N[C@@H](CC(C)C)C(=O)N[C@@H](CC(=O)O)C(=O)N[C@@H](CCCCN)C(=O)N[C@H](C(=O)N[C@@H](Cc1c[nH]cn1)C(=O)N[C@@H](CCC(N)=O)C(=O)N[C@@H](CCC(N)=O)C(=O)N[C@@H](CC(=O)O)C(=O)N[C@@H](Cc1ccccc1)C(=O)N[C@H](C(=O)N[C@@H](CC(N)=O)C(=O)N[C@@H](Cc1c[nH]c2ccccc12)C(=O)N[C@@H](CC(C)C)C(=O)N[C@@H](CC(C)C)C(=O)N[C@@H](C)C(=O)N[C@@H](CCC(N)=O)C(=O)N[C@@H](CCCCN)C(=O)N1CCC[C@H]1C(=O)N[C@@H](CCCCN)C(=O)N[C@@H](CCCCN)C(=O)N[C@H](C(=O)N[C@@H](CCCNC(=N)N)C(=O)N[C@@H](Cc1ccc(O)cc1)C(=O)N[C@@H](CO)C(N)=O)[C@@H](C)CC)C(C)C)[C@@H](C)CC [0601GIP4807]	−27, % and −27, 30%	–	–	–	96.1	<794 @ −120 min	96.1	–
